Legend:
Assay type in all cases: biochemical
[1] = molecular target: T1, human DDAH-1 (Homo sapiens, UniProt O94760); assay: Concentration-response and mode-of-inhibition assays for IC50 and Ki; conditions: for Hill Coefficient: concentration-response plot, substrate 50 µM; for Mode of inhibition: varying substrate and inhibitor, large effect on KM, not on kcat
[2] = molecular target: T1, human DDAH-1; assay: Reversibility upon dilution into excess substrate; conditions: enzyme-inhibitor mixture diluted into excess substrate
[3] = molecular target: T2, P. aeruginosa isoform of DDAH (Pseudomonas aeruginosa, UniProt Q9I4E3); assay: Inhibition of P. aeruginosa DDAH by reversible inhibitors; conditions: at concentrations up to 1 mM
T2 sequence (Q9I4E3 1-254): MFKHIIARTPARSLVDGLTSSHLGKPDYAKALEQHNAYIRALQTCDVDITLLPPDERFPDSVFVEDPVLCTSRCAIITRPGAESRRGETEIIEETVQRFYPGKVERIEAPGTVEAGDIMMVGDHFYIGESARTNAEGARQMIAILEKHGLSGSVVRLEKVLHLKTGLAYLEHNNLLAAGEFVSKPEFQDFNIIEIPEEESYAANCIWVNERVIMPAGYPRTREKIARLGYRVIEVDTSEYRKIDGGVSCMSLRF

[4] = molecular target: T1, human DDAH-1; assay: Time-dependent inactivation of human DDAH-1

T1 sequence (O94760 whole entry): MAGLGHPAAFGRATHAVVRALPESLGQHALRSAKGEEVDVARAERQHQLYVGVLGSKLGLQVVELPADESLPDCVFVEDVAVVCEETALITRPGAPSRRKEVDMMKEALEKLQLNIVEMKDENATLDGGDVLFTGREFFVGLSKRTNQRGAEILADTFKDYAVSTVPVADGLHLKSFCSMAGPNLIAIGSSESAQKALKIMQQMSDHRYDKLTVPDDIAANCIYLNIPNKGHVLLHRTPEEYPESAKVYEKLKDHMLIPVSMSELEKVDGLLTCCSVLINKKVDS

| SMILES | Ligand Efficiency ([1]; calculated from experimental Ki values) | Hill Coefficient [1] | Mode of inhibition [1] | Reversibility of inhibition [2] | Inhibition of P. aeruginosa DDAH [3] | kinact/KI [4] |
| --- | --- | --- | --- | --- | --- | --- |
| NCCSc1nc2ccccc2o1 [Compound 13, 2-(1,3-benzoxazol-2-ylthio)ethanamine] | 0.3 kcal / mol / heavy (non-hydrogen) atom | 1.0 ± 0.3 | competitive | full activity was rapidly regained | – | – |
| CCc1nc2ccccc2[nH]1 [Compound 12, 2-ethyl-benzimidazole] | – | 1.5 ± 0.2 | competitive | full activity was rapidly regained | did not show any inhibition | – |
| OCc1cc(Cl)ccn1 [Compound 11, 2-hydroxymethyl-4-chloropyridine] | – | – | – | – | – | ~0.04 M⁻¹ s⁻¹ |
| Cc1cc(Br)ccn1 [Compound 10, 2-methyl-4-bromopyridine] | – | – | – | – | – | ~0.05 M⁻¹ s⁻¹ |

Source: PMC3444674 (Bioorganic & medicinal chemistry, 2012)
